Data on four compounds can be found in US20080020076A1, “Methods and Therapies for Potentiating a Therapeutic Action of an Alpha-2 Adrenergic Receptor Agonist and Inhibiting and/or Reversing Tolerance to Alpha-2 Adrenergic Receptor Agonists” (priority 2006, published 2008).

In experiment [1] the test system is alpha-2 adrenergic receptor. The experiment in a line: paw pressure test (mechanical antinociception), intrathecal drugs. In kind it is in vivo, rat. How it is done:
(§1) Experiments were conducted using adult male Sprague-Dawley rats (Charles River, St. Constant, QC, Canada) weighing between 200-250 grams. Animals were housed individually in standard laboratory cages, maintained on a 12-hour light/dark cycle, and provided with food and water ad libitum. The surgical placement of chronic indwelling intrathecal catheters (polyethylene PE 10 tubing, 7.5 cm) into the spinal subarachnoid space was made under 4% halothane anesthesia, using the method of Yaksh and Rudy Physiol. Behav. 1976 7:1032-1036). Specifically, the anesthetized animal was placed prone in a stereotaxic frame, a small incision made at the back of the neck, and the atlanto-occipital membrane overlying the cisterna magna was exposed and punctured with a blunt needle. The catheter was inserted through the cisternal opening and slowly advanced caudally to position its tip at the lumbar enlargement. The rostral end of the catheter was exteriorized at the top of the head and the wound closed with sutures. Animals were allowed 3-4 days recovery from surgery and only those free from neurological deficits, such as the hindlimb or forelimb paralysis or gross motor dysfunction, were included in the study. All drugs were injected intrathecally as solutions dissolved in physiological saline (0.9%) through the exteriorized portion of the catheter at a volume of 10 μl, followed by a 10 μl volume of 0.9% saline to flush the catheter.
(§2) The paw pressure test (Loomis et al., Pharm. Biochem. 1987 26:131-139) was used to measure the response to a mechanical nociceptive stimulus. Pressure was applied to the dorsal surface of the hind paw using an inverted air-filled syringe connected to a gauge and the value at which the animal withdrew its paw was recorded. A maximum cutoff pressure of 300 mmHg was used to avoid tissue damage.
A single injection of clonidine was administered intrathecally and the response measured in the tail flick and paw pressure test. […] Following drug administration, nociceptive testing was performed every 10 minutes for the first 60 minutes and every 30 minutes for the following 120-150 minute period. Results for atipemazole are depicted in FIG. 1A (tail flick) and FIG. 1B (paw pressure).
(§3) For the in vivo studies, tail flick and paw pressure values were converted to a maximum percentage effect (M.P.E.): M.P.E.=100×[post-drug response−baseline response]/[maximum response−baseline response]. Data represented in the figures are expressed as mean (±S.E.M.). The ED50 values were determined using a non-linear regression analysis (Prism 2, GraphPad Software Inc., San Diego, Calif., USA). Statistical significance (p<0.05, 0.01. or 0.001) was determined using a one-way analysis of variance followed by a Student Newman-Keuls post hoc test for multiple comparisons between groups.

Experiment [2] deals with alpha-2 adrenergic receptor. Put plainly: tail flick test (thermal antinociception), intrathecal drugs. In kind it is in vivo, rat.
Experiment [3] concerns alpha-2 adrenergic receptor. The experiment in a line: acute tolerance to spinal L-norepinephrine analgesia, paw pressure test. In kind it is in vivo, rat. How it is done: (§4) The effect of normal saline (20 μl) was also evaluated by injection at 90 minute intervals. Pain responses were evaluated in the tail flick and paw pressure test at 30 minute intervals.
as §1, §2, §3

Experiment [4] deals with alpha-2 adrenergic receptor. The experiment in a line: acute tolerance to spinal L-norepinephrine analgesia, tail flick test. In kind it is in vivo, rat. As for the experimental part:
as §4, §1
The tail flick test (D'amour & Smith, J. Pharmacol. Exp. Ther. 1941 72:74-79) was used to measure the response to a thermal nociceptive stimulus. Radiant heat was applied to the distal third of the animal's tail and the response latency for tail withdrawal from the source was recorded using an analgesia meter (Owen et al., J. Pharmacol. Methods 1981 6:33-37)). The stimulus intensity was adjusted to yield baseline response latencies between 2-3 seconds. To minimize tail damage, a cutoff of 10 seconds was used as an indicator of maximum antinociception.
as §3
Background: Thermal pain tests record how soon the animal reacts.

Another experiment deals with alpha-2 adrenoceptors. To be noted: versus yohimbine; cited from earlier work.
In experiment [5] the test system is alpha-2 adrenergic receptor. The experiment in a line: tail flick test (thermal antinociception), intrathecal drugs. In kind it is in vivo, rat. How it is done: as §1, with “Animals were allowed 3-4 days recovery from surgery and only those free from neurological deficits, such as the hindlimb or forelimb paralysis or gross motor dysfunction, were included in the study. All drugs were injected intrathecally as solutions dissolved in physiological saline (0.9%) through the exteriorized portion of the catheter at a volume of 10 μl, followed by a 10 μl volume of 0.9% saline to flush the catheter.” left out
The tail flick test (D'amour & Smith, J. Pharmacol. Exp. Ther. 1941 72:74-79) was used to measure the response to a thermal nociceptive stimulus. Radiant heat was applied to the distal third of the animal's tail and the response latency for tail withdrawal from the source was recorded using an analgesia meter (Owen et al., J. Pharmacol. Methods 1981 6:33-37)). […]
A single injection of clonidine was administered intrathecally and the response measured in the tail flick and paw pressure test. […]
as §3
This is another data set of the same source.

Where [6] appears, read: clonidine 50 nmoles (13.3 μg) intrathecal, alone.
The mark [7] stands for this setting: clonidine 50 nmoles (13.3 μg) intrathecal, alone, listed as Clonidine.
Where [8] appears, read: clonidine 200 nmoles intrathecal, alone.
The mark [9] stands for this setting: 24 hours after three successive injections of norepinephrine alone.
[10] abbreviates: norepinephrine alone, 30 μg x3 at 90 minute intervals.
[11] abbreviates: single spinal dose of norepinephrine (30 μg), alone.
Where [12] appears, read: yohimbine 0.0002, 0.005 and 0.02 ng with clonidine 50 nmoles (13.3 μg) intrathecal.
Where [13] appears, read: 24 hours after treatment, atipemazole 0.008 or 0.8 ng combined with norepinephrine.
Where [14] appears, read: atipemazole 0.8 ng with L-norepinephrine 30 μg, three intrathecal injections at 90 minute intervals.
[15] abbreviates: atipemazole 0.008 or 0.8 ng combined with norepinephrine, x3, 24 hours after.
[16] abbreviates: combination of norepinephrine 30 μg and atipemazole 0.8 ng, x3 at 90 minute intervals.
Where [17] appears, read: atipemazole 0.08 ng with L-norepinephrine 30 μg intrathecal.
Where [18] appears, read: atipemazole 0.0008, 0.008 and 0.08 ng with clonidine 50 nmoles intrathecal.
Setting [19] is: atipemazole 1, 5, 10 μg co-administered with clonidine 200 nmoles intrathecal.

As for `Clc1cccc(Cl)c1N=C1NCCN1` [clonidine], the analgesic response result is “submaximal analgesic response” in experiment [1] (setting [6]); “submaximal analgesia” in experiment [1] (setting [7]); “a lesser effect” in experiment [1] (setting [8]); “submaximal analgesic response” in experiment [2] (setting [6]); “submaximal analgesia” in experiment [2] (setting [7]); “maximal analgesic response” in experiment [2] (setting [8]).
Consider `NC[C@H](O)c1ccc(O)c(O)c1` [norepinephrine, L-norepinephrine], for which the “L-norepinephrine ED50 versus saline control group” value in experiment [3] (setting [9]) and in experiment [4] (setting [9]) was “increased significantly” in each case. Also, the “analgesic response at 240 minutes, after the third dose” value in experiment [3] (setting [10]) and in experiment [4] (setting [10]) was “significantly declined towards pre-drug baseline value” each time. For the same compound, the “time at which analgesia terminated” value in experiment [1] (setting [11]) and in experiment [2] (setting [11]) was 180 min in each case. In addition, the “time of peak analgesia” value in experiment [1] (setting [11]) and in experiment [2] (setting [11]) was 30 min in each case.
As for `COC(=O)[C@@H]1[C@H]2C[C@H]3c4[nH]c5ccccc5c4CCN3C[C@@H]2CC[C@@H]1O` [yohimbine], the “effect on clonidine analgesic response” value in experiment [1] (setting [12]) and in experiment [2] (setting [12]) was “significantly augmented” each time.
As to `CCC1(c2cnc[nH]2)Cc2ccccc2C1` [atipemazole], the “rightward shift of the L-norepinephrine cumulative dose-response curve” value in experiment [3] (setting [13]) and in experiment [4] (setting [13]) was “prevented” throughout. In addition, the “effect on decline of norepinephrine analgesia on repeated injection” value in experiment [3] (setting [14]) and in experiment [4] (setting [14]) was “inhibited the decline of norepinephrine analgesia” each time. Besides, the “effect on increase of L-norepinephrine ED50” value in experiment [3] (setting [15]) and in experiment [4] (setting [15]) was “completely prevented the increase in ED50 values” each time. Besides, the “analgesic response at 240 minutes, after the third dose” value in experiment [3] (setting [16]) and in experiment [4] (setting [16]) was “sustained the maximal analgesic level” in each case. In addition, in the experiment on alpha-2 adrenoceptors, the “potency as a displacer of clonidine relative to yohimbine” value is recorded as “about 100 times”. The “effect on norepinephrine analgesia” value in experiment [1] (setting [17]) and in experiment [2] (setting [17]) was “extended norepinephrine analgesia” each time. For the same compound, the “effect on clonidine analgesic response” value in experiment [1] (setting [18]) and in experiment [2] (setting [18]) was “significantly augmented” each time. In addition, the “effect on clonidine response” value in experiment [1] (setting [19]) is “decreased clonidine response in the paw pressure test but only at the highest dose”. Further, the “effect on peak clonidine analgesia” value is given as “almost abolishing the response” in experiment [5] (atipemazole 10 μg (highest dose) with clonidine 200 nmoles intrathecal) and “dose-related decrease” in experiment [5] (setting [19]). Besides, the “dose antagonizing the analgesic action of clonidine” value in experiment [5] (intrathecal, co-administered with clonidine 200 nmoles) is recorded as “greater than 1 microgram”.
